Reference: article PMC10648875 (Antimicrobial Agents and Chemotherapy, 2023)
≈ marks a conversion by molar mass, not a printed value.

What was measured:
PAM4825 producing MIR-1 = experiment: MIC, engineered isogenic strain; assay type: cell-based, P. aeruginosa; details: MIR-1, class C; BLIs at fixed 4 µg/mL
[1] = test system: PAM4743 producing CTX-M-15; experiment: MIC, engineered isogenic strain; assay type: cell-based, P. aeruginosa; details: CTX-M-15, class A; BLIs at fixed 4 µg/mL
PAM4846 producing OXA-9 = experiment: MIC, engineered isogenic strain; assay type: cell-based, P. aeruginosa; details: OXA-9, class D; BLIs at fixed 4 µg/mL
PAM4179 producing NDM-1 = experiment: MIC, engineered isogenic strain; assay type: cell-based, P. aeruginosa; details: NDM-1, class B; BLIs at fixed 4 µg/mL
PAM4878 producing TEM-10 = experiment: MIC, engineered isogenic strain; assay type: cell-based, P. aeruginosa; details: TEM-10, class A; BLIs at fixed 4 µg/mL
PAM4744 producing SME-2 = experiment: MIC, engineered isogenic strain; assay type: cell-based, P. aeruginosa; details: SME-2, class A; BLIs at fixed 4 µg/mL
PAM4801 producing GES-20 = experiment: MIC, engineered isogenic strain; assay type: cell-based, P. aeruginosa; details: GES-20, class A; BLIs at fixed 4 µg/mL
PAM4792 producing OXA-2 = experiment: MIC, engineered isogenic strain; assay type: cell-based, P. aeruginosa; details: OXA-2, class D; BLIs at fixed 4 µg/mL
PAM4827 producing OXA-1 = experiment: MIC, engineered isogenic strain; assay type: cell-based, P. aeruginosa; details: OXA-1, class D; BLIs at fixed 4 µg/mL
PAM4186 producing CMY-2 = experiment: MIC, engineered isogenic strain; assay type: cell-based, P. aeruginosa; details: CMY-2, class C; BLIs at fixed 4 µg/mL
PAM4198 producing IMP-15 = experiment: MIC, engineered isogenic strain; assay type: cell-based, P. aeruginosa; details: IMP-15, class B; BLIs at fixed 4 µg/mL
PAM4910 producing VEB-2 = experiment: MIC, engineered isogenic strain; assay type: cell-based, P. aeruginosa; details: VEB-2, class A; BLIs at fixed 4 µg/mL
[2] = test system: PAM4840 producing OXY-6–2; experiment: MIC, engineered isogenic strain; assay type: cell-based, P. aeruginosa; details: OXY-6–2, class A; BLIs at fixed 4 µg/mL
PAM4196 producing IMP-13 = experiment: MIC, engineered isogenic strain; assay type: cell-based, P. aeruginosa; details: IMP-13, class B; BLIs at fixed 4 µg/mL
PAM4795 producing VIM-1 = experiment: MIC, engineered isogenic strain; assay type: cell-based, P. aeruginosa; details: VIM-1, class B; BLIs at fixed 4 µg/mL
PAM4798 producing VIM-2 = experiment: MIC, engineered isogenic strain; assay type: cell-based, P. aeruginosa; details: VIM-2, class B; BLIs at fixed 4 µg/mL
[3] = test system: PAM4823 producing CTX-M-27; experiment: MIC, engineered isogenic strain; assay type: cell-based, P. aeruginosa; details: CTX-M-27, class A; BLIs at fixed 4 µg/mL
PAM4217 producing OXA-48 = experiment: MIC, engineered isogenic strain; assay type: cell-based, P. aeruginosa; details: OXA-48, class D; BLIs at fixed 4 µg/mL
PAM4907 producing PER-4 = experiment: MIC, engineered isogenic strain; assay type: cell-based, P. aeruginosa; details: PER-4, class A; BLIs at fixed 4 µg/mL
PAM4879 producing CcrA = experiment: MIC, engineered isogenic strain; assay type: cell-based, P. aeruginosa; details: class B, BLIs at fixed 4 µg/mL
PAM4745 producing P99 = experiment: MIC, engineered isogenic strain; assay type: cell-based, P. aeruginosa; details: P99, class C; BLIs at fixed 4 µg/mL
PAM4842 producing PER-2 = experiment: MIC, engineered isogenic strain; assay type: cell-based, P. aeruginosa; details: PER-2, class A; BLIs at fixed 4 µg/mL
[4] = test system: ESBL-producing and carbapenem-resistant Enterobacterales (All, N = 1028); experiment: organism not typed; assay type: cell-based; details: for MIC50: read-out: MIC50; for MIC90: read-out: MIC90
PAM4908 producing VEB-1 = experiment: MIC, engineered isogenic strain; assay type: cell-based, P. aeruginosa; details: VEB-1, class A; BLIs at fixed 4 µg/mL
PAM4880 producing L1 = experiment: MIC, engineered isogenic strain; assay type: cell-based, P. aeruginosa; details: L1, class B; BLIs at fixed 4 µg/mL
PAM4883 producing GIM-1 = experiment: MIC, engineered isogenic strain; assay type: cell-based, P. aeruginosa; details: GIM-1, class B; BLIs at fixed 4 µg/mL
OXA-48 = OXA-48 (Klebsiella pneumoniae, UniProt Q6XEC0); experiment: Ki app of β-lactamase inhibition, purified enzyme; assay type: biochemical, Enterobacterales; details: 10-minute preincubation; nitrocefin substrate
Chain of OXA-48 (Q6XEC0 23-265 limits assumed): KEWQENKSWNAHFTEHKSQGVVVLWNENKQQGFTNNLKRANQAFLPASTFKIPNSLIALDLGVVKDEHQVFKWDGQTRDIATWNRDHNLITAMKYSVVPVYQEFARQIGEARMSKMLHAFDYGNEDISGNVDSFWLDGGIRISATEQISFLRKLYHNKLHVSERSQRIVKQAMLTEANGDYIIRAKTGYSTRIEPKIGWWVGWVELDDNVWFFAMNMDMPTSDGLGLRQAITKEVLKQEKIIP
Experimental: (§1) The majority of purified β-lactamase enzymes used in the study were either expressed and purified internally ([35]) or obtained from Emerald Biostructures (Bainbridge Island, WA, USA). L1 enzyme was purified as described in reference ([36]).
(§2) Enzymes were mixed with BLIs at concentrations varying from 160 to 0.0027 µM in 50-mM Na-phosphate pH7.0, 0.1-mg/mL bovide serum albumin (BSA) (buffer A; 20-µM ZnCl2 was also added for all metalloenzymes) and incubated for 10 minutes at 37°C. Nitrocefin (50 µM) (10 µM for SHV-12) or 100 µM of imipenem (prewarmed at 37°C for 10 minutes) was added, and substrate cleavage profiles were recorded at 37°C at 490 nm every 10 seconds for 10 minutes or at 294 nm every 30 seconds for 1 hour for nitrocefin and imipenem, respectively. […] Ki app values (Ki for metalloenzymes) were calculated by the method of Waley ([37]).

L1 = biological target: T1, L1 (Stenotrophomonas maltophilia, UniProt P52700); experiment: Ki of metallo-β-lactamase inhibition, purified enzyme; assay type: biochemical; details: 10-minute preincubation; nitrocefin substrate
T1 construct: made in house
T1 sequence (P52700 34-290): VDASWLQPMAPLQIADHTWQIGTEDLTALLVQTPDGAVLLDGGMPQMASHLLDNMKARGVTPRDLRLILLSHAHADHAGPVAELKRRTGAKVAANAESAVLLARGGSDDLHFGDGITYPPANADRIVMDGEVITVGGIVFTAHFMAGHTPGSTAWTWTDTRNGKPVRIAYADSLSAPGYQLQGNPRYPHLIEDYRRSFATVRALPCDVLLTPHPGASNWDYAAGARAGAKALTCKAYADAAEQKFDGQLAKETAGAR
Experimental: as §1, §2

VIM-1 = VIM-1 (Pseudomonas aeruginosa, UniProt A0A0F7KYQ8); experiment: as above; assay type: biochemical; details: 10-minute preincubation, nitrocefin substrate
Experimental: as §1, §2

SMILES	MIC (PAM4825 producing MIR-1)	MIC [1]	MIC (PAM4846 producing OXA-9)	MIC (PAM4179 producing NDM-1)	MIC (PAM4878 producing TEM-10)	MIC (PAM4744 producing SME-2)	MIC (PAM4801 producing GES-20)	MIC (PAM4792 producing OXA-2)	MIC (PAM4827 producing OXA-1)	MIC (PAM4186 producing CMY-2)	MIC (PAM4198 producing IMP-15)	MIC (PAM4910 producing VEB-2)	MIC [2]	MIC (PAM4196 producing IMP-13)	MIC (PAM4795 producing VIM-1)	MIC (PAM4798 producing VIM-2)	MIC [3]	MIC (PAM4217 producing OXA-48)	MIC (PAM4907 producing PER-4)	MIC (PAM4879 producing CcrA)	also measured
C[C@@H](O)[C@H]1C(=O)N2C(C(=O)O)=C(S[C@@H]3CN[C@H](C(=O)N(C)C)C3)[C@H](C)[C@H]12 [MEM, meropenem]	0.5 µg/mL (≈ 1.3 µM)	0.25 µg/mL (≈ 0.652 µM)	0.25 µg/mL (≈ 0.652 µM)	32 µg/mL (≈ 83.4 µM)	0.125 µg/mL (≈ 0.326 µM)	8 µg/mL (≈ 20.9 µM)	8 µg/mL (≈ 20.9 µM)	2 µg/mL (≈ 5.22 µM)	≤ 0.06 µg/mL	0.25 µg/mL (≈ 0.652 µM)	1 µg/mL (≈ 2.61 µM)	0.25 µg/mL (≈ 0.652 µM)	0.25 µg/mL (≈ 0.652 µM)	1 µg/mL (≈ 2.61 µM)	4 µg/mL (≈ 10.4 µM)	8 µg/mL (≈ 20.9 µM)	0.5 µg/mL (≈ 1.3 µM)	4 µg/mL (≈ 10.4 µM)	0.125 µg/mL (≈ 0.326 µM)	2 µg/mL (≈ 5.22 µM)	MIC (PAM4745 producing P99): 1 µg/mL (≈ 2.61 µM); MIC (PAM4842 producing PER-2): 0.125 µg/mL (≈ 0.326 µM); MIC50 [4]: 0.5 µg/mL (≈ 1.3 µM); MIC90 [4]: > 64 µg/mL; MIC (PAM4908 producing VEB-1): 0.5 µg/mL (≈ 1.3 µM); MIC (PAM4880 producing L1): 32 µg/mL (≈ 83.4 µM); MIC (PAM4883 producing GIM-1): 32 µg/mL (≈ 83.4 µM)
NCCN[C@H]1CC[C@H](CC(=O)N[C@H]2Cc3cccc(C(=O)O)c3OB2O)CC1 [Taniborbactam, taniborbactam]																					Ki (OXA-48): 6.1 ± 0.7 nM; Ki (L1): 17000 nM; Ki (VIM-1): 31 ± 3 nM; Ki (VIM-1; listed as taniborbactam): ~30 nM
CO/N=C(\C(=O)N[C@@H]1C(=O)N2C(C(=O)[O-])=C(C[N+]3(C)CCCC3)CS[C@H]12)c1csc(N)n1 [FEP, cefepime]	2 µg/mL (≈ 4.16 µM)	> 64 µg/mL	2 µg/mL (≈ 4.16 µM)	> 64 µg/mL	16 µg/mL (≈ 33.3 µM)	0.5 µg/mL (≈ 1.04 µM)	2 µg/mL (≈ 4.16 µM)	0.5 µg/mL (≈ 1.04 µM)	1 µg/mL (≈ 2.08 µM)	1 µg/mL (≈ 2.08 µM)	16 µg/mL (≈ 33.3 µM)	> 64 µg/mL	8 µg/mL (≈ 16.6 µM)	16 µg/mL (≈ 33.3 µM)	> 64 µg/mL	8 µg/mL (≈ 16.6 µM)	> 64 µg/mL	0.5 µg/mL (≈ 1.04 µM)	64 µg/mL (≈ 133 µM)	16 µg/mL (≈ 33.3 µM)	MIC (PAM4745 producing P99): 8 µg/mL (≈ 16.6 µM); MIC (PAM4842 producing PER-2): 64 µg/mL (≈ 133 µM); MIC50 [4]: 64 µg/mL (≈ 133 µM); MIC90 [4]: > 64 µg/mL; MIC (PAM4908 producing VEB-1): > 64 µg/mL; MIC (PAM4880 producing L1): 4 µg/mL (≈ 8.32 µM); MIC (PAM4883 producing GIM-1): 8 µg/mL (≈ 16.6 µM)
O=C(O)c1c(F)ccc2c1OB(O)[C@@H]1C[C@H]21 [Xeruborbactam, xeruborbactam]																					Ki (OXA-48): 0.22 ± 0.08 nM; Ki (L1): 1400 nM; Ki (VIM-1): 32 ± 14 nM
